Measured values published in publication PMC3222680 (PLoS ONE, 2011).

Assays:
[1] = tested on: α-β, β-α, αB-β and αT-β subunits expressed alone; details: chimeric subunits expressed alone in oocytes; data not shown
Method: (§1) VCF experiments were performed on GlyRs expressed in Xenopus laevis oocytes. Female Xenopus laevis frogs were purchased from Xenopus Express, France. Details of oocyte preparation, GlyR expression and VCF recording are described elsewhere. Briefly, the mMessage mMachine kit (Ambion, Austin, TX) was used to generate capped mRNA. The mRNA was injected into oocytes of the female Xenopus laevis frog with 10 ng (1 ng α1 and 9 ng β or any other chimeric subunits) per oocyte. After injection, the oocytes were incubated in ND96 solution [33] for 3–4 days at 18 °C before recording.
(§2) The sulfhydryl-reactive reagent, sulforhodamine methanethiosulfonate (MTSR, Toronto Research Chemicals, North York, Ontario, Canada), was used to label 19′C residues. […] The oocytes were then transferred to the recording chamber and perfused with ND96 solution. The current was recorded by the two-electrode voltage clamp configuration and the recording electrode was filled with 3 M KCl. Cells were voltage-clamped at −40 mV. The fluorescence was recorded using the PhotoMax 200 photodiode detection system (Dagan Corp., Minneapolis, MN).

αWT αB-β19′C GlyR = αWT αB-β19′C GlyR (Homo sapiens, UniProt P23415+P48167, A80Q/C69A); details: MTSR-labeled, oocytes
Sequence of αWT αB-β19′C GlyR (P23415 29-449 isoform P23415-2 C69A): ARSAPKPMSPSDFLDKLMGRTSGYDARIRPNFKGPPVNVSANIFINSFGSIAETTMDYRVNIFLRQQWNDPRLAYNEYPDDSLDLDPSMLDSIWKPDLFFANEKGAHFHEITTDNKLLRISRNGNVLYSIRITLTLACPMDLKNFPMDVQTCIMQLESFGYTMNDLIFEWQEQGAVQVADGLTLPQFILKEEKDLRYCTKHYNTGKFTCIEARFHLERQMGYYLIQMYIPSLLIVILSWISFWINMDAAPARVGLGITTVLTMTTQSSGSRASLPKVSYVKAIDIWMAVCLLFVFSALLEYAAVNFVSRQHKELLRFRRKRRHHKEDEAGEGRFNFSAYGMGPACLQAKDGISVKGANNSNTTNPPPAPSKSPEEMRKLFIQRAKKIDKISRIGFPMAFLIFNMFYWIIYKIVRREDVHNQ
Sequence of αWT αB-β19′C GlyR (P23415+P48167 fused with the stated changes): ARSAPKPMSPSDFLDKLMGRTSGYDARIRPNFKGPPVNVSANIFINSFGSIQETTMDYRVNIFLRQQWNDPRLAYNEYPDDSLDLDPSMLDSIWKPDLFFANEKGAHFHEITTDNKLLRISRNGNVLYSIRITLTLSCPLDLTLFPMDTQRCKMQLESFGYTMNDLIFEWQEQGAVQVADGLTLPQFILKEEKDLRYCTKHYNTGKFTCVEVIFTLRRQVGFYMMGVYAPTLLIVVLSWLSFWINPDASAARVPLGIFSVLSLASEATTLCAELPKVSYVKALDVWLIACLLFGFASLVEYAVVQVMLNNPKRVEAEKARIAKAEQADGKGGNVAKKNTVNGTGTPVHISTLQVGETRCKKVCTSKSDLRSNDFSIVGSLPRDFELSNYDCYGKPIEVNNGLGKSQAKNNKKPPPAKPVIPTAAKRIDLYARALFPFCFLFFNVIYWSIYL
Method: (§3) The human GlyR α1 and β subunit cDNAs were subcloned into the pcDNA3.1zeo+ (Invitrogen) or pGEMHE [44] plasmid vectors for expression in HEK293 cells or Xenopus oocytes, respectively. Site-directed mutagenesis and chimera construction were performed using the QuickChange (Stratagene, La Jolla, CA, USA) mutagenesis and multiple-template-based sequential PCR protocols, respectively.
(§4) For the VCF experiments, both GlyR α1 and β subunit cDNAs in the pGEMHE vector were mutated to substitute non-essential background cysteines with alanines, including α1C41A and βC115AC291A [46], [47].
as §1, §2
(§5) Results are expressed as mean±standard error of the mean of three or more independent experiments. […] Statistical significance was determined using the Student's t-test.

αWT β-α19′C GlyR = αWT β-α19′C GlyR (Homo sapiens, UniProt P23415+P48167, C137A/C69A/R299C); details: MTSR-labeled, oocytes
Sequence of αWT β-α19′C GlyR (P23415 29-449 isoform P23415-2 C69A): as the sequence (P23415 29-449 isoform P23415-2 C69A) above
Sequence of αWT β-α19′C GlyR (P48167+P23415 fused with the stated changes): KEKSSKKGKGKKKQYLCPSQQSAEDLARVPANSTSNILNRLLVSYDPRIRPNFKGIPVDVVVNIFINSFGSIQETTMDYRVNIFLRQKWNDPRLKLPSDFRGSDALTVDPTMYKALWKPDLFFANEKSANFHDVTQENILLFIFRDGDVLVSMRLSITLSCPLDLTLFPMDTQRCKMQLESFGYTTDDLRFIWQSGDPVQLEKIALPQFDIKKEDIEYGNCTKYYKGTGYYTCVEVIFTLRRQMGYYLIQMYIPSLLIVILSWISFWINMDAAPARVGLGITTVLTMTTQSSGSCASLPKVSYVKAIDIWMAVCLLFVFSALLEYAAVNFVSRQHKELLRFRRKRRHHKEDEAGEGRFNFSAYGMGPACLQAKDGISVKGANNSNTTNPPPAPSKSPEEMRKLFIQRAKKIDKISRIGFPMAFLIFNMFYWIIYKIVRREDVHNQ
Method: as §3, §4, §1, §2, §5

αWT αT-β19′C GlyR = αWT αT-β19′C GlyR (Homo sapiens, UniProt P23415+P48167, A317C/C137A/C313A/C69A/Q95A); details: MTSR-labeled, oocytes
Sequence of αWT αT-β19′C GlyR (P23415 29-449 isoform P23415-2 C69A): as the sequence (P23415 29-449 isoform P23415-2 C69A) above
Sequence of αWT αT-β19′C GlyR (P48167 23-497 with the stated changes): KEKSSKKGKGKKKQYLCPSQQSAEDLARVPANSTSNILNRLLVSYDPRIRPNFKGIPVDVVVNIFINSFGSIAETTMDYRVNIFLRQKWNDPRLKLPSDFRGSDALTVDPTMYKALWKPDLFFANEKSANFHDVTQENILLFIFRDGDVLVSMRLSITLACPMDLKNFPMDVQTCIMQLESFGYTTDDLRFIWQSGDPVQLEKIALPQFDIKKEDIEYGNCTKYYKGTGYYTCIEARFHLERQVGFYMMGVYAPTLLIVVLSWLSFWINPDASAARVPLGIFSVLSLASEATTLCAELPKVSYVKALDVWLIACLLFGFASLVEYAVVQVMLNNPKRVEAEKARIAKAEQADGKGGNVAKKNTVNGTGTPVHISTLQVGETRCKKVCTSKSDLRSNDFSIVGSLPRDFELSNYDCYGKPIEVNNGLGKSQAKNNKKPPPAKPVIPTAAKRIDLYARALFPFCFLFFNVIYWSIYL
Method: as §3, §4, §1, §2, §5

αWT α-β19′C GlyR = αWT α-β19′C GlyR (Homo sapiens, UniProt P23415+P48167, C69A); details: MTSR-labeled, oocytes
Sequence of αWT α-β19′C GlyR (P23415 29-449 isoform P23415-2 C69A): as the sequence (P23415 29-449 isoform P23415-2 C69A) above
Sequence of αWT α-β19′C GlyR (P23415+P48167 fused with the stated changes): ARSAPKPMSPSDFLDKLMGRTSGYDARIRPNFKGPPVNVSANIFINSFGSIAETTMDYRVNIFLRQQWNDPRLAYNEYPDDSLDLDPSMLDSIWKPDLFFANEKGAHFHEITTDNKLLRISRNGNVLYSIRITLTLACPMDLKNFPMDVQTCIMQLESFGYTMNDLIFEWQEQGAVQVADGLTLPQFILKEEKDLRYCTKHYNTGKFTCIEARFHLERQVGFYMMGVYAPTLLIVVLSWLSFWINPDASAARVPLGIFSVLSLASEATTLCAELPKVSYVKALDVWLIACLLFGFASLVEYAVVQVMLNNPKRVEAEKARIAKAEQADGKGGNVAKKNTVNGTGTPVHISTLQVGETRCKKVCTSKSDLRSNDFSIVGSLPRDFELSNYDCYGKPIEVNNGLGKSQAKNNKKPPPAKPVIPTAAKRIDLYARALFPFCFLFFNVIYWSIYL
Method: as §3, §4, §1, §2, §5

α19′C βWT GlyR = α19′C βWT GlyR (Homo sapiens, UniProt P23415+P48167, C137A/C313A/C69A/R299C); details: MTSR-labeled, oocytes
Sequence of α19′C βWT GlyR (P23415 29-449 isoform P23415-2 C69A/R299C limits assumed): as the sequence (P23415 29-449 isoform P23415-2 C69A) above, with R271C counted along it
Sequence of α19′C βWT GlyR (P48167 23-497 C137A/C313A): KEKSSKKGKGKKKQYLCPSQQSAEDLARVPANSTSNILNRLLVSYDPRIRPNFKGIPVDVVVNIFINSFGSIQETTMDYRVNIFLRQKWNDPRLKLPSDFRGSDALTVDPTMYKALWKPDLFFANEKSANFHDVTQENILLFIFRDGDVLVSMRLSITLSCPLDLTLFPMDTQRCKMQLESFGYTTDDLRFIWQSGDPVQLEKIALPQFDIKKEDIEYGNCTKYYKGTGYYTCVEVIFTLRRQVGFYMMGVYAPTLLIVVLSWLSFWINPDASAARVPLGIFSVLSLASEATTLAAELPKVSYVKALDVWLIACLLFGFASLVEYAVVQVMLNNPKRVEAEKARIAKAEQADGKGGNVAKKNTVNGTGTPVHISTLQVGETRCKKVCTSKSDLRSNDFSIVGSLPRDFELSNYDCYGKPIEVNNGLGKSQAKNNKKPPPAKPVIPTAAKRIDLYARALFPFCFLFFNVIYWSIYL
Method: as §3, §4, §1, §2, §5

αWT β19′C GlyR = αWT β19′C GlyR (Homo sapiens, UniProt P23415+P48167, A317C/C137A/C313A/C69A); details: MTSR-labeled, oocytes
Sequence of αWT β19′C GlyR (P23415 29-449 isoform P23415-2 C69A): as the sequence (P23415 29-449 isoform P23415-2 C69A) above
Sequence of αWT β19′C GlyR (P48167 23-497 C137A/C313A/A317C): as the sequence (P48167 23-497 C137A/C313A) above, with A295C counted along it
Method: as §3, §4, §1, §2, §5

[2] = tested on: chimera α–β or chimera β–α transfected alone; experiment: Whole cell patch-clamp, chimeras transfected alone into HEK293 cells; type: cell-based, human; details: glycine up to 100 mM, data not shown
Method: as §3
The effects of the hyperekplexia-mimicking mutations, K24′A, V25′A and Y27′A, were examined on GlyRs expressed in HEK293 cells (ATCC). Details of the HEK293 cell culture, GlyR expression and electrophysiological recording of the HEK293 cells are described elsewhere. Briefly, HEK293 cells were maintained in DMEM supplemented with 10% fetal bovine serum. Cells were transfected using a calcium phosphate precipitation protocol. When co-transfecting the α1 together with the β or any other chimera subunits, their respective cDNAs were combined in a ratio of 1∶10. In addition, the pEGFP-N1 (Clontech) was co-transfected to facilitate identifying the transfected cells. […] Cells were treated with external Ringer's solution and internal CsCl solution [30]. Cells were voltage-clamped at −40 mV. When the heteromeric GlyRs were expressed, the picrotoxin sensitivity was tested to confirm that the majority of receptors are heteromers, [30].

αY27′A β-αWT GlyR = αY27′A β-αWT GlyR (Homo sapiens, UniProt P23415+P48167, Y307A)
Sequence of αY27′A β-αWT GlyR (P23415 29-449 isoform P23415-2 Y307A): as the sequence (P23415 29-449 isoform P23415-2 C69A) above, with A41C, Y279A counted along it
Sequence of αY27′A β-αWT GlyR (P48167+P23415 fused with the stated changes): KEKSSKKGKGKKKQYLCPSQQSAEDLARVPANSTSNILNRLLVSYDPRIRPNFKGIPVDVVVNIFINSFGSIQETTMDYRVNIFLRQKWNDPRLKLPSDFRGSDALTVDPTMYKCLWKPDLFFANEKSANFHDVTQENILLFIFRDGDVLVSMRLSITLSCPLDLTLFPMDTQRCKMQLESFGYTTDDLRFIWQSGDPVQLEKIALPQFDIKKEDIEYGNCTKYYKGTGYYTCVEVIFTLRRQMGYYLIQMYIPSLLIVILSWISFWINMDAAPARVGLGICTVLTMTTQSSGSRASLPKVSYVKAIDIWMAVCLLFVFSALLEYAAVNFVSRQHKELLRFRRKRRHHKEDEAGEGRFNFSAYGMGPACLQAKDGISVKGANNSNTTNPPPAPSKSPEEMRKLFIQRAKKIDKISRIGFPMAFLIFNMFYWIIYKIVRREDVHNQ
Method: as §3
For the β-α chimeras used for determining the effect of hyperekplexia-mimicking mutations on α1 β GlyR channel function, the Thr at the M2 6′ position was replaced by a Cys. […] Through such a modification, picrotoxin resistance was used to distinguish the heteromeric α1 β-α GlyR from the homomeric α1 GlyR when the α1 and β-α subunits were co-expressed.
The effects of the hyperekplexia-mimicking mutations, K24′A, V25′A and Y27′A, were examined on GlyRs expressed in HEK293 cells (ATCC). Details of the HEK293 cell culture, GlyR expression and electrophysiological recording of the HEK293 cells are described elsewhere. Briefly, HEK293 cells were maintained in DMEM supplemented with 10% fetal bovine serum. Cells were transfected using a calcium phosphate precipitation protocol. […]
as §5

Compound: NCC(=O)O [glycine]
- glycine-induced current and fluorescence changes [1]: neither glycine-induced current nor fluorescence changes could be detected
- Current Imax (αWT αB-β19′C GlyR): 2.57±0.14 µA
- Current nH (αWT αB-β19′C GlyR): 2.11±0.11
- Fluorescence Fmax (αWT αB-β19′C GlyR): 8.52±1.07%
- Fluorescence nH (αWT αB-β19′C GlyR): 1.19±0.12
- Current Imax (αWT β-α19′C GlyR): 3.19±0.08 µA
- Current nH (αWT β-α19′C GlyR): 2.26±0.11
- Fluorescence Fmax (αWT β-α19′C GlyR): 3.86±0.37%
- Fluorescence nH (αWT β-α19′C GlyR): 1.15±0.05
- Current Imax (αWT αT-β19′C GlyR): 2.19±0.20 µA
- Current nH (αWT αT-β19′C GlyR): 1.45±0.06
- Fluorescence Fmax (αWT αT-β19′C GlyR): 11.5±0.6%
- Fluorescence nH (αWT αT-β19′C GlyR): 2.31±0.06
- Current Imax (αWT α-β19′C GlyR): 1.53±0.09 µA
- Current nH (αWT α-β19′C GlyR): 2.36±0.32
- Fluorescence Fmax (αWT α-β19′C GlyR): 6.58±1.17%
- Fluorescence nH (αWT α-β19′C GlyR): 2.10±0.13
- Current Imax (α19′C βWT GlyR): 3.51±0.24 µA
- Current nH (α19′C βWT GlyR): 1.20±0.16
- Fluorescence Fmax (α19′C βWT GlyR): 9.42±0.53%
- Fluorescence nH (α19′C βWT GlyR): 0.97±0.04
- Current Imax (αWT β19′C GlyR): 2.46±0.19 µA
- Current nH (αWT β19′C GlyR): 2.73±0.38
- Fluorescence Fmax (αWT β19′C GlyR): 7.58±0.84%
- Fluorescence nH (αWT β19′C GlyR): 1.47±0.12
- current upon application of glycine [2]: neither chimera, when transfected alone into HEK293 cells, induced any current
- nH (αY27′A β-αWT GlyR; Hill coefficient of glycine-induced current): 1.0±0.1
- Imax (αY27′A β-αWT GlyR; glycine-induced current): 1.3±0.3 nA
